{"source": "patent US20260132127A1", "about": "“NOVEL SPIRO COMPOUND” (MITSUBISHI TANABE PHARMA CORPORATION, priority 2021, published 2026)", "data": [{"molecular_target": "T1, human TRH-DE (Homo sapiens, UniProt Q9UKU6)", "T1 construct": "expressed in transfected cells; host or cells: Expi 293 cells (transient expression), membrane fraction", "T1 sequence (Q9UKU6 1-1069)": "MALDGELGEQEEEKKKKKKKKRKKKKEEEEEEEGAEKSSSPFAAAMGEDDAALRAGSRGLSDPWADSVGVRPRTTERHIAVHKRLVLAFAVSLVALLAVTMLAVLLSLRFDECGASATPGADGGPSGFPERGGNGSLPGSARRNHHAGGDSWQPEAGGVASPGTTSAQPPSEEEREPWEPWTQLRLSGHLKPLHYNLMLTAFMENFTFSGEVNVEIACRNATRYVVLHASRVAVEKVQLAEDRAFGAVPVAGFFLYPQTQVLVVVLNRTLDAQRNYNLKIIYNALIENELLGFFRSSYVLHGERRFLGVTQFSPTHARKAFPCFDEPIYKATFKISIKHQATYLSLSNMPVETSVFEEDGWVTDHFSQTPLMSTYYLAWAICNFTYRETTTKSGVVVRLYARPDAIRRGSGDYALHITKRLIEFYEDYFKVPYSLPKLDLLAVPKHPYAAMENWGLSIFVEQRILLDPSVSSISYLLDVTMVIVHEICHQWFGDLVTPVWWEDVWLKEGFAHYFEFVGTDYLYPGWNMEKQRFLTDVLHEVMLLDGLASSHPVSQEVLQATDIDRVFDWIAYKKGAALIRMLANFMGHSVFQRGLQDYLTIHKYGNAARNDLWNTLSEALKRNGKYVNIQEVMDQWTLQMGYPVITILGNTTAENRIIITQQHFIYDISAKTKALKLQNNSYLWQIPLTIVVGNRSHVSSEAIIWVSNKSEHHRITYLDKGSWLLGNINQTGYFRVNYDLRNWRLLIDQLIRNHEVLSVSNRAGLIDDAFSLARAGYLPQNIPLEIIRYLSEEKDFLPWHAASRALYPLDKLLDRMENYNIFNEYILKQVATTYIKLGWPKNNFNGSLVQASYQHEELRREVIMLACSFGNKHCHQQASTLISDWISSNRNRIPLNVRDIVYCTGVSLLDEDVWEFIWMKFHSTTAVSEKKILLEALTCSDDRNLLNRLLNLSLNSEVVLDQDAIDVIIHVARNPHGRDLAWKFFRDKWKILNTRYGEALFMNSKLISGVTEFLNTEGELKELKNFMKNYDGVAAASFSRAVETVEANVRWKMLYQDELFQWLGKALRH", "assay": "TRH-DE inhibition test (RapidFire MS measurement of product Cyclo (His-Pro))", "assay_type": "biochemical", "conditions": "membrane fraction of Expi 293 cells expressing human TRH-DE; 10 μM TRH substrate; room temperature, 2 hours; 16-point concentration test", "summary_of_the_method": "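Inhibition derived from product/internal-standard ratios of Cyclo(His-Pro), quantified by RapidFire triple-quadrupole MS after acetonitrile:methanol quench, with IC50 fitted over 16 concentrations. Enzyme source: membranes of Expi 293 cells transiently expressing human TRH-DE, 4 μg/ml, pH 7.4 phosphate buffer. Incubation with 10 μM substrate ran 2 h at room temperature.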", "units": {"IC50": "nM"}, "values": [{"smiles": "C[C@@H]1COc2ncc(C3CC3)cc2C(=O)N1C1CC2(C1)CN(S(=O)(=O)c1ccccc1F)C2", "note": "[Example 315]", "IC50": 3}, {"smiles": "C[C@@H]1COc2nc(C3CC3)ccc2C(=O)N1C1CC2(C1)CN(S(=O)(=O)c1ccccc1F)C2", "note": "[Example 316]", "IC50": 2}, {"smiles": "Cc1nc2c(cc1F)C(=O)N(C1CC3(C1)CN(S(=O)(=O)c1ccccc1F)C3)[C@H](C)CO2", "note": "[Example 317]", "IC50": 3}, {"smiles": "Cc1ncc2c(n1)OC[C@@H](C)N(C1CC3(C1)CN(S(=O)(=O)c1ccccc1F)C3)C2=O", "note": "[Example 318]", "IC50": 9}, {"smiles": "C[C@@H]1CCn2ncc(C3CC3)c2C(=O)N1C1CC2(C1)CN(S(=O)(=O)c1ccccc1F)C2", "note": "[Example 319]", "IC50": 22}, {"smiles": "C[C@@H]1CCn2nc(F)c(C3CC3)c2C(=O)N1C1CC2(C1)CN(S(=O)(=O)c1ccccc1F)C2", "note": "[Example 320]", "IC50": 72}, {"smiles": "C[C@@H]1COc2nn(C)c(C3CC3)c2C(=O)N1C1CC2(C1)CN(S(=O)(=O)c1ccccc1F)C2", "note": "[Example 321]", "IC50": 74}, {"smiles": "C[C@@H]1CCn2c(cnc2C2CC2)C(=O)N1C1CC2(C1)CN(S(=O)(=O)c1ccccc1F)C2", "note": "[Example 322]", "IC50": 7}, {"smiles": "Cc1nc(C2CC2)n2c1C(=O)N(C1CC3(C1)CN(S(=O)(=O)c1ccccc1F)C3)[C@H](C)CC2", "note": "[Example 323]", "IC50": 103}, {"smiles": "Cc1onc2c1OC[C@@H](C)N(C1CC3(C1)CN(S(=O)(=O)c1ccccc1F)C3)C2=O", "note": "[Example 324]", "IC50": 37}, {"smiles": "C[C@@H]1COc2c(noc2C2CC2)C(=O)N1C1CC2(C1)CN(S(=O)(=O)c1ccccc1F)C2", "note": "[Example 325]", "IC50": 17}, {"smiles": "C[C@@H]1Cn2ncc(C3CC3)c2C(=O)N1C1CC2(C1)CN(S(=O)(=O)c1ccccc1F)C2", "note": "[Example 326]", "IC50": 4}, {"smiles": "C[C@@H]1Cn2nc(F)c(C3CC3)c2C(=O)N1C1CC2(C1)CN(S(=O)(=O)c1ccccc1F)C2", "note": "[Example 327]", "IC50": 6}, {"smiles": "C[C@@H]1Cn2cnc(C3CC3)c2C(=O)N1C1CC2(C1)CN(S(=O)(=O)c1ccccc1F)C2", "note": "[Example 328]", "IC50": 14}, {"smiles": "Cc1nc(C2CC2)c2n1C[C@@H](C)N(C1CC3(C1)CN(S(=O)(=O)c1ccccc1F)C3)C2=O", "note": "[Example 329]", "IC50": 67}, {"smiles": "C[C@@H]1Cn2cc(C3CC3)nc2C(=O)N1C1CC2(C1)CN(S(=O)(=O)c1ccccc1F)C2", "note": "[Example 330]", "IC50": 19}, {"smiles": "C[C@@H]1COc2nc(C3CC3)ncc2C(=O)N1C1CC2(C1)CN(S(=O)(=O)c1ccccc1F)C2", "note": "[Example 331, (7R)-2-cyclopropyl-6-[2-(2-fluorophenyl)sulfonyl-2-azaspiro[3.3]heptan-6-yl]-7-methyl-7,8-dihydropyrimido[5,4-f][1,4]oxazepin-5-one]", "IC50": 3}, {"smiles": "C[C@@H]1COc2cc(C#N)cnc2C(=O)N1C1CC2(C1)CN(S(=O)(=O)c1ccccc1F)C2", "note": "[Example 332, (3R)-4-[2-(2-fluorophenyl)sulfonyl-2-azaspiro[3.3]heptan-6-yl]-3-methyl-5-oxo-2,3-dihydropyrido[2,3-f][1,4]oxazepin-8-carbonitrile]", "IC50": 4}, {"smiles": "C[C@@H]1COc2ncc(C#N)cc2C(=O)N1C1CC2(C1)CN(S(=O)(=O)c1ccccc1F)C2", "note": "[Example 333, (3R)-4-[2-(2-fluorophenyl)sulfonyl-2-azaspiro[3.3]heptan-6-yl]-3-methyl-5-oxo-2,3-dihydropyrido[3,2-f][1,4]oxazepin-7-carbonitrile]", "IC50": 18}, {"smiles": "Cc1nc2c(cc1C#N)C(=O)N(C1CC3(C1)CN(S(=O)(=O)c1ccccc1F)C3)[C@H](C)CO2", "note": "[Example 334]", "IC50": 18}, {"smiles": "CC(=O)c1cnc2c(c1)OC[C@@H](C)N(C1CC3(C1)CN(S(=O)(=O)c1ccccc1F)C3)C2=O", "note": "[Example 336]", "IC50": 2}, {"smiles": "C[C@@H]1COc2cc(C(F)(F)F)cnc2C(=O)N1C1CC2(C1)CN(S(=O)(=O)c1ccccc1F)C2", "note": "[Example 337]", "IC50": 2}, {"smiles": "C[C@@H]1CNc2cccnc2C(=O)N1C1CC2(C1)CN(S(=O)(=O)c1ccccc1F)C2", "note": "[Example 338, (3R)-4-[2-(2-fluorophenyl)sulfonyl-2-azaspiro[3.3]heptan-6-yl]-3-methyl-2,3-dihydro-1H-pyrido[3,2-e][1,4]diazepin-5-one]", "IC50": 4}, {"smiles": "CC1CCc2[nH]c(=O)ccc2C(=O)N1C1CC2(C1)CN(S(=O)(=O)c1ccccc1F)C2", "note": "(centres unmarked) [Example 339, 6-[2-(2-fluorophenyl)sulfonyl-2-azaspiro[3.3]heptan-6-yl]-7-methyl-1,7,8,9-tetrahydropyrido[3,2-c]azepin-2,5-dione]", "IC50": 78}, {"smiles": "C[C@@H]1COc2nc(C(F)F)cnc2C(=O)N1C1CC2(C1)CN(S(=O)(=O)c1ccccc1F)C2", "note": "[Example 341, (7R)-3-(difluoromethyl)-8-[2-(2-fluorophenyl)sulfonyl-2-azaspiro[3.3]heptan-6-yl]-7-methyl-6,7-dihydropyrazino[2,3-f][1,4]oxazepin-9-one]", "IC50": 5}, {"smiles": "C[C@@H]1CCn2c(C3CC3)nc(C(F)F)c2C(=O)N1C1CC2(C1)CN(S(=O)(=O)c1ccccc1F)C2", "note": "[Example 342, (7R)-3-cyclopropyl-1-(difluoromethyl)-8-[2-(2-fluorophenyl)sulfonyl-2-azaspiro[3.3]heptan-6-yl]-7-methyl-6,7-dihydro-5H-imidazo[1,5-a][1,4]diazepin-9-one]", "IC50": 50}, {"smiles": "CC1Cc2cc(C(F)(F)F)ncc2C(=O)N1C1CC2(C1)CN(S(=O)(=O)c1ccccc1F)C2", "note": "(centres unmarked) [Example 343, 2-[2-(2-fluorophenyl)sulfonyl-2-azaspiro[3.3]heptan-6-yl]-3-methyl-6-(trifluoromethyl)-3,4-dihydro-2,7-naphthyridin-1-one]", "IC50": 18}, {"smiles": "CC1(C)Oc2cc(Cl)ncc2C(=O)N1C1CC2(C1)CN(S(=O)(=O)c1ccccc1F)C2", "note": "[Example 344, 7-chloro-3-[2-(2-fluorophenyl)sulfonyl-2-azaspiro[3.3]heptan-6-yl]-2,2-dimethyl-pyrido[3,4-e][1,3]oxazin-4-one]", "IC50": 75}, {"smiles": "C[C@@H]1Cn2c(ccc2C(F)(F)F)C(=O)N1C1CC2(C1)CN(S(=O)(=O)c1ccccc1F)C2", "note": "[Example 345, (3R)-2-[2-(2-fluorophenyl)sulfonyl-2-azaspiro[3.3]heptan-6-yl]-3-methyl-6-(trifluoromethyl)-3,4-dihydropyrrolo[1,2-a]pyrazin-1-one]", "IC50": 167}, {"smiles": "C[C@@H]1CNc2nc(C(F)(F)F)ccc2C(=O)N1C1CC2(C1)CN(S(=O)(=O)c1ccccc1F)C2", "note": "[Example 346, (3R)-4-[2-(2-fluorophenyl)sulfonyl-2-azaspiro[3.3]heptan-6-yl]-3-methyl-8-(trifluoromethyl)-2,3-dihydro-1H-pyrido[2,3-e][1,4]diazepin-5-one]", "IC50": 2}, {"smiles": "Cc1nc2c(s1)C(C)N(C1CC3(C1)CN(S(=O)(=O)c1ccccc1F)C3)C2=O", "note": "(centres unmarked) [Example 347]", "IC50": 185}, {"smiles": "C[C@@H]1COc2nc(C3CCC3)ncc2C(=O)N1C1CC2(C1)CN(S(=O)(=O)c1ccccc1F)C2", "note": "[Example 367]", "IC50": 8}, {"smiles": "CCc1ncc2c(n1)OC[C@@H](C)N(C1CC3(C1)CN(S(=O)(=O)c1ccccc1F)C3)C2=O", "note": "[Example 368]", "IC50": 13}, {"smiles": "CC(C)Oc1ncc2c(n1)OC[C@@H](C)N(C1CC3(C1)CN(S(=O)(=O)c1ccccc1F)C3)C2=O", "note": "[Example 369, (7R)-6-[2-(2-fluorophenyl)sulfonyl-2-azaspiro[3.3]heptan-6-yl]-7-methyl-2-propan-2-yloxy-7,8-dihydropyrimid[5,4-f][1,4]oxazepin-5-one]", "IC50": 8}, {"smiles": "COc1ncc2c(n1)OC[C@@H](C)N(C1CC3(C1)CN(S(=O)(=O)c1ccccc1F)C3)C2=O", "note": "[Example 370]", "IC50": 8}, {"smiles": "C[C@@H]1COc2nc(OC3CCC3)ncc2C(=O)N1C1CC2(C1)CN(S(=O)(=O)c1ccccc1F)C2", "note": "[Example 371]", "IC50": 5}, {"smiles": "C[C@@H]1COc2nc(OC3CCCC3)ncc2C(=O)N1C1CC2(C1)CN(S(=O)(=O)c1ccccc1F)C2", "note": "[Example 372]", "IC50": 4}, {"smiles": "C[C@@H]1COc2nc(OC3CC3)ncc2C(=O)N1C1CC2(C1)CN(S(=O)(=O)c1ccccc1F)C2", "note": "[Example 373]", "IC50": 5}, {"smiles": "CCOc1ncc2c(n1)OC[C@@H](C)N(C1CC3(C1)CN(S(=O)(=O)c1ccccc1F)C3)C2=O", "note": "[Example 374]", "IC50": 8}, {"smiles": "C[C@@H]1COc2nc(OC3CCOCC3)ncc2C(=O)N1C1CC2(C1)CN(S(=O)(=O)c1ccccc1F)C2", "note": "[Example 375]", "IC50": 11}, {"smiles": "C[C@@H]1COc2nc(O[C@@H]3CCOC3)ncc2C(=O)N1C1CC2(C1)CN(S(=O)(=O)c1ccccc1F)C2", "note": "[Example 376]", "IC50": 21}]}]}
